Test: Solubility: dissolution state of compound in dilution solvent
Format: physicochemical
Conditions: agitated at 25° C. and 100 rpm for 1 hour; for Amount of dissolved compound, diluted solvent (Anone): 0.5 g compound added to Anone (cyclohexanone); for Amount of dissolved compound, diluted solvent (PGMEA): 0.5 g compound added to PGMEA
Protocol: 0.5 g of each compound represented by Chemical Formulae 3-1 and 7-1 is respectively added to a dilution solvent (PGMEA, Anone, MeOH) to prepare each solution, the solution is agitated at 25° C. and 100 rpm for 1 hour with a mix rotor (MIXROTAR VMR-5, Luchi Deiseido Co., Ltd.) to examine dissolution state of the compound (the content of the dissolved compound), and the results are provided in the following Table 1. (Anone indicates cyclohexanone)

Compound	Amount of dissolved compound, diluted solvent (Anone)	Amount of dissolved compound, diluted solvent (PGMEA)	Amount of dissolved compound, diluted solvent (MeOH) (0.5 g compound added to MeOH)
C=C(C)C(=O)OCCNS(=O)(=O)c1ccc(-c2c3ccc(=[N+](CC)CC)cc-3oc3cc(N(CC)CC)ccc23)c(S(=O)(=O)[O-])c1 [Chemical Formula 3-1]	equal to 0.1 wt %	to 0.1 wt %	–
C=C(C)C(=O)OCCN(CCCCCCCCCCCCCCCC)S(=O)(=O)c1ccc(-c2c3ccc(=[N+](CC)CC)cc-3oc3cc(N(CC)CC)ccc23)c(S(=O)(=O)[O-])c1 [Chemical Formula 7-1]	3.0 wt %	0.1 wt %	equal to 10.0 wt %
